Measurements published in patent US12629370B2, “Treatment of prostate cancer” (Sumitomo Pharma Co., Ltd., priority 2016, dated 2026).
Values joined by “and” are separate entries in the source; they are usually repeats but may differ in a detail not shown here. Equal values may be shown once. “Also recorded” adds a separate entry of the source. Read-outs that look alike come from different tables or passages of the source.

Tests used:
serum testosterone = test: Example 6: serum testosterone (CLIA) in men with non-metastatic prostate cancer, Parts A and B; type: in vivo, human
[1] = Example 7: single and multiple dose pharmacokinetics and food effect in healthy men; type: in vivo, human; conditions: for half-life: read-out: mean plasma T1/2 (converted)
Procedure: Samples were analyzed using validated liquid chromatography with tandem mass spectrometry (LC/MS/MS) methods. The LLOQ was 0.0100 ng/ml for plasma and 0.500 ng/ml for urine.
Then, a formal assessment was performed using both analysis of variance (ANOVA) and power model approaches. […] In Part 2, steady state attainment was determined based on visual inspection of mean observed predose plasma concentration during multiple dosing (Ctrough) versus time profiles at each dose level. Noncompartmental analysis of Part 3 and 4 data were not planned given the limited number of postdose samples collected per subject on Days 1 and 28.

PSA = test: Example 8: PSA response; type: in vivo, human
Description: Eligible men were aged ≥18 years with a histologically confirmed diagnosis of prostate adenocarcinoma, and were candidates for ADT for the management of hormone-sensitive prostate cancer with one of the following clinical disease states: advanced localized disease not suitable for primary surgical or radiation therapy; evidence of PSA biochemical or clinical relapse following primary surgery or radiation therapy of curative intent; or newly diagnosed metastatic disease that was asymptomatic and without visceral involvement. Additional inclusion criteria at screening included: eugonadal serum testosterone >150 ng/dl (5.2 nmol/L); serum PSA concentration >2 ng/ml (or, when applicable, >0.2 ng/ml following radical prostatectomy or >2 ng/mL above the post-radiotherapy nadir following radiotherapy); body mass index ≥18.0 at screening and/or baseline (i.e., the subject's BMI prior to treatment commencing); and Eastern Cooperative Oncology Group (ECOG) performance status of 0 or 1. Patients with advanced, localized MON1 or M1 disease with clinically significant symptoms or visceral involvement, who required immediate GnRH therapy, chemotherapy, or radiation therapy were not eligible for the trial.
PSA levels were measured at each visit.

FSH = test: Example 8: FSH levels; type: in vivo, human;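 note: FSH determined at every study visit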
Procedure: Patients on leuprorelin received their final injection at week 37, day 1, and the week 49, day 1 visit was considered the end of leuprorelin exposure. Patients receiving leuprorelin at visits at 16 (EOT), 20 (follow-up visit), and 24 (EOS) weeks after the last leuprorelin injection.
FSH levels were also measured at each visit.

[2] = test system: patients with intermediate-risk prostate cancer; test: Example 9: quality of life (EORTC QLQ-C30, QLQ-PR25, AMS); type: in vivo, human
Procedure: Eligible male patients were aged ≥18 years with a histologically confirmed diagnosis of localized, intermediate-risk prostate cancer, for whom 6-month neoadjuvant and adjuvant androgen deprivation therapy (ADT) to external beam radiation therapy (EBRT) was indicated. The criteria for establishing intermediate-risk prostate cancer included the presence of one of the following, without any high-risk feature: T2b-T2c disease, Gleason score 7, or prostate-specific antigen (PSA) 10-20 ng/mL. Additional inclusion criteria included: EBRT scheduled to begin ≥12 weeks after baseline visit; screening serum testosterone >150 ng/dL (5.2 nmol/L); screening PSA concentration >2 ng/ml; body mass index ≥18.0 at screening or baseline (i.e., the subject's BMI prior to treatment commencing); Eastern Cooperative Oncology Group performance status of 0 or 1 at screening. Based on investigator discretion and clinical assessment of the patient's overall medical and disease status, participation was allowed for older patients with high-risk disease (e.g., based on Gleason score or tumor status) who were deemed likely to benefit from 6 months of neoadjuvant/adjuvant ADT. Most patients had intermediate-risk disease. However, a few patients, based on Gleason score or tumor, node, and metastasis staging system, were technically of higher than intermediate risk.
Both treatment arms received treatment for 24 weeks. Patients remained on treatment for at least 12 weeks before the start of external beam radiation treatment (EBRT), which was initiated for most patients between Week 13, Day 1 and Week 15, Day 1. EBRT began no later than day 1, week 17.
Quality of Life (QoL) was assessed via the core 30-item European Organisation for Research and Treatment of Cancer quality of life questionnaire (EORTC QLQ-C30), the 25-item prostate cancer module EORTC questionnaire (EORTC QLQ-PR25), and the aging male survey (AMS). QoL assessments were completed at screening, on day 1 of weeks 1, 5, 13, and 25, and at weeks 29, 33, and 37.

[3] = Example 7: serum testosterone lowering in healthy men; type: in vivo; conditions: male, human, plasma, oral, maintenance doses of 80 mg or greater
FIG. 22 = test: FIG. 22
Description: Table printed on a drawing sheet, FIG. 22
First reader's note: The rows 'Plasma' and 'Urine' are section headings giving the matrix; the raised marks a and c are printed, but their footnotes are not on the sheet, and the meaning of the values in brackets is not stated.)

[4] = Compound 1 Total, Week 2, Day 1
[5] = Compound 1 Total, Week 5, Day 1
[6] = Compound 1 Total, Week 13, Day 1
[7] = Compound 1 Total, Week 25, Day 1
[8] = Compound 1 Total, Week 49, Day 1
[9] = from baseline (day 1) to week 25

CONC(=O)Nc1ccc(-c2sc3c(c2CN(C)C)c(=O)n(-c2ccc(OC)nn2)c(=O)n3Cc2c(F)cccc2F)cc1 [Compound 1, N-(4-(1-(2,6-difluorobenzyl)-5-((dimethylamino)methyl)-3-(6-methoxy-3-pyridazinyl)-2,4-dioxo-1,2,3,4-tetrahydrothieno[2,3-d]pyrimidin-6-yl)phenyl)-N′-methoxyurea]
time for mean serum testosterone to fall below medical castration levels (below 50 ng/dL) (serum testosterone; Part A, load dose then maintenance 80, 120 or 160 mg QD): up to 3 days | when serum testosterone achieved medical castration levels in all subjects (serum testosterone; Part A, maintained up to 3 days after last dose on Day 28): between Day 2 and Day 14 | time for mean serum testosterone to be suppressed below medical castration levels (below 50 ng/dL) (serum testosterone; Part B, 320 mg load then 80 or 120 mg QD): ≤ 4 days | when serum testosterone reached medical castration levels in all subjects (serum testosterone; Part B, maintained throughout evaluation period): between Day 2 and Week 3 | decrease in mean Cmax and mean plasma AUC0-∞ on co-administration with food versus fasting ([1]; 180 mg single dose): approximately 50% | median Tmax, fasting conditions ([1]; 180 mg single dose): 1.75 h | median Tmax, fed conditions ([1]; 180 mg single dose, high fat breakfast): 5.00 h | decrease in mean plasma AUC (systemic exposure), dosing 30 min before standardized meal versus fasted ([1]; 180 mg, Part 2 Day 1 versus Part 1 fasted): approximately 28% | dose proportionality of mean Cmax at steady state ([1]; 20 to 180 mg QD): increased slightly more than dose-proportionately | dose proportionality of mean plasma AUC0-tau at steady state ([1]; 20 to 180 mg QD): increased in a dose-proportional manner | median Tmax ([1]; across all doses studied): ~2 h | Compound 1 excreted unchanged in urine ([1]; after single and repeat dosing): Less than 4% | Tmax ([1]; male, human, plasma, oral, 180 mg single dose, high fat breakfast, read-out: median Tmax, fed conditions): 5 h | half-life ([1]; male, human, plasma, oral, across the 20 to 180 mg QD dose range): 1.5 to 2.71 days | half-life ([1]; male, human, plasma, oral, repeat dosing, 20 mg QD): 2.69 days | half-life ([1]; male, human, plasma, oral, repeat dosing, 180 mg QD): 1.49 days | dose proportionality of mean Cmax and mean plasma AUC0-∞ ([1]; single doses of 80 mg to 360 mg): dosed proportionally over 80-360 mg range; also recorded: approximate dose-proportional increases | increase in systemic exposure following QD dosing ([1]; steady state): approximately 2 fold | Median time from first dose to PSA nadir (PSA; 80 mg QD): 16.1 Weeks | Median time from first dose to PSA nadir (PSA; 120 mg QD): 12.3 Weeks | patients with ≥50% serum PSA reduction (PSA; after 4 weeks of treatment): Eighty-three percent | patients with ≥90% serum PSA reduction (PSA; after 4 weeks of treatment): Eight percent | average PSA level (PSA; by Week 13 Day 1 visit): less than 0.4 ng/ml | average PSA level (PSA; by Week 21 Day 1 visit): less than 0.2 ng/ml | PSA % responses in most patients (PSA; end of 24 weeks dosing): exceed 90% | PSA response following initiation of treatment compared with leuprorelin (PSA; in vivo): more rapid | FSH Mean (Std Dev) (FSH; 80 mg QD, Baseline): 14.729 (14.3473) IU/L | FSH Median (FSH; 80 mg QD, Baseline): 9.550 IU/L | FSH Mean (Std Dev) (FSH; 80 mg QD, Week 2, Day 1): 3.112 (3.0612) IU/L | FSH Median (FSH; 80 mg QD, Week 2, Day 1): 2.100 IU/L | FSH Mean (Std Dev) (FSH; 80 mg QD, Week 5, Day 1): 1.248 (2.6737) IU/L | FSH Median (FSH; 80 mg QD, Week 5, Day 1): 0.400 IU/L | FSH Mean (Std Dev) (FSH; 80 mg QD, Week 13, Day 1): 1.137 (2.4242) IU/L | FSH Median (FSH; 80 mg QD, Week 13, Day 1): 0.500 IU/L | FSH Mean (Std Dev) (FSH; 80 mg QD, Week 25, Day 1): 1.090 (0.9932) IU/L | FSH Median (FSH; 80 mg QD, Week 25, Day 1): 0.800 IU/L | FSH Mean (Std Dev) (FSH; 80 mg QD, Week 49, Day 1): 1.802 (1.3956) IU/L | FSH Median (FSH; 80 mg QD, Week 49, Day 1): 1.450 IU/L | FSH Median (FSH; 120 mg QD, Baseline): 11.050 IU/L | FSH Mean (Std Dev) (FSH; 120 mg QD, Week 2, Day 1): 3.183 (2.8956) IU/L | FSH Median (FSH; 120 mg QD, Week 2, Day 1): 2.300 IU/L | FSH Mean (Std Dev) (FSH; 120 mg QD, Week 5, Day 1): 1.035 (1.0479) IU/L | FSH Median (FSH; 120 mg QD, Week 5, Day 1): 0.600 IU/L | FSH Mean (Std Dev) (FSH; 120 mg QD, Week 13, Day 1): 0.908 (0.8104) IU/L | FSH Median (FSH; 120 mg QD, Week 13, Day 1): 0.600 IU/L | FSH Mean (Std Dev) (FSH; 120 mg QD, Week 25, Day 1): 1.344 (0.9675) IU/L | FSH Median (FSH; 120 mg QD, Week 25, Day 1): 1.200 IU/L | FSH Mean (Std Dev) (FSH; 120 mg QD, Week 49, Day 1): 1.938 (1.2169) IU/L | FSH Median (FSH; 120 mg QD, Week 49, Day 1): 1.600 IU/L | FSH range over the course of 48 weeks (FSH; 120 mg dose, >10 mIU/mL at baseline): 0.6-1.6 mIU/mL | FSH Mean (Std Dev) (FSH; Compound 1 Total, Baseline): 15.269 (13.5920) IU/L | FSH Median (FSH; Compound 1 Total, Baseline): 9.850 IU/L | FSH Mean (Std Dev) (FSH; [4]): 3.147 (2.9653) IU/L | FSH Median (FSH; [4]): 2.150 IU/L | FSH Mean (Std Dev) (FSH; [5]): 1.143 (2.0379) IU/L | FSH Median (FSH; [5]): 0.550 IU/L | FSH Mean (Std Dev) (FSH; [6]): 1.025 (1.8164) IU/L | FSH Median (FSH; [6]): 0.500 IU/L | FSH Mean (Std Dev) (FSH; [7]): 1.215 (0.9838) IU/L | FSH Median (FSH; [7]): 0.900 IU/L | FSH Mean (Std Dev) (FSH; [8]): 1.867 (1.3077) IU/L | FSH Median (FSH; [8]): 1.500 IU/L | median FSH (FSH; after 48 weeks of treatment): 1.62 mIU/mL | Hormonal treatment-related symptoms, Mean (SD) change [2, 9]: 13.4 (12.1) | Sexual activity, Mean (SD) change [2, 9]: −19.7 (29.4) | Global health/QoL, Mean (SD) change ([2]; from baseline to week 36 (EOS)): −7.7 (17.8) | Hormonal treatment-related symptoms, Mean (SD) change ([2]; from baseline to week 36 (EOS)): 8.5 (11.3) | Sexual activity, Mean (SD) change ([2]; from baseline to week 36 (EOS)): −7.3 (30.0) | Global health/QoL, Mean (SD) change ([2]; from week 25 to week 36): 2.3 (16.6) | Hormonal treatment-related symptoms, Mean (SD) change ([2]; from week 25 to week 36): −5.0 (10.3) | Sexual activity, Mean (SD) change ([2]; from week 25 to week 36): 12.1 (21.8) | QOL (AMS and sexual activity scores) from EOT through EOS ([2]; in vivo): appeared to improve more in the Compound 1 than the degarelix group | concentration at 28 days [3]: > 4 ng/mL | AUC0-24 (ng•h/mL) (FIG. 22): 1358 (53.1) ng•h/mL and 1878 (51.9) ng•h/mL | CLr (L/h) (FIG. 22): 7.29 (13.2) L/h and 7.25 (36.2) L/h and 7.36 (25.9) L/h | Fe (%) (FIG. 22): 0.934 (39.4) % and 2.20 (74.7) % and 2.61 (62.3) % and 3.43 (29.4) %
